pIC50: −log10 of the molar value. Like-named read-outs stand apart in the source and are kept apart here.
Key:
[1] = system: Ba/F3 cells expressing EGFR mutations; test: Cell proliferation assay, Ba/F3 cells expressing EGFR mutations (CellTiter-Glo, 72 hours); type: cell-based; details: CellTiter-Glo
In short: (§1)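 Ba/F3 cells carrying EGFR mutants (5000/well) or PC-9 cells (500/well) in RPMI1640 were dosed with compound series after overnight attachment and grown 72 h. Viability read by CellTiter-Glo, with day-0 counts subtracted; GI50 from curve fits of % proliferation versus DMSO control.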

[2] = target: T1, EGFR[T790M/C797S/L858R] (Homo sapiens, UniProt P00533, C797S/L858R/T790M); test: Inhibition of EGFR[T790M/C797S/L858R] biochemical enzymatic activity (HTRF); details: EGFR T790M-C797S-L858R, 1 mM ATP, 1 h, room temperature, read-out: IC50 (nM) @T790M- C797S - L858R
T1 construct: purchased Carna Bio
In short: (§2)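 Each enzyme was first added to plates holding compound. The reaction was then started with ATP (1 mM) and peptide substrate (1 μM). It was stopped after 1 h at room temperature with EDTA detection reagents and read at 615/665 nm to derive IC50s.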

[3] = target: T2, EGFR wild type (Homo sapiens, UniProt P00533); test: Inhibition of EGFR wild type biochemical enzymatic activity (HTRF); details: EGFR WT, 1 mM ATP, 1 h, room temperature, read-out: IC50 (nM) @WT
T2 construct: purchased Carna Bio
In short: as §2

[4] = target: T3, EGFR Exon19Del (Homo sapiens, UniProt P00533, DEL746-750); test: Inhibition of EGFR Exon19Del biochemical enzymatic activity (HTRF); details: EGFR Del19, 1 mM ATP, 1 h, room temperature, read-out: IC50 @Del19
T3 construct: purchased Carna Bio
In short: as §2

[5] = system: PC-9; test: Cell proliferation assay, PC-9 cells (CellTiter-Glo, 72 hours); type: cell-based; details: PC9 cells, CellTiter-Glo, read-out: PC9 GI50
In short: as §1

[6] = target: T4, EGFR Exon19Del/T790M (Homo sapiens, UniProt P00533, DEL746-750/T790M); test: Inhibition of EGFR Exon19Del/T790M biochemical enzymatic activity (HTRF); details: EGFR Del19-T790M, 1 mM ATP, 1 h, room temperature, read-out: IC50 (nM) @Del19-T790M
T4 construct: purchased Carna Bio
In short: as §2

[7] = target: T5, EGFR L858R/T790M (Homo sapiens, UniProt P00533, L858R/T790M); test: Inhibition of EGFR L858R/T790M biochemical enzymatic activity (HTRF); details: EGFR L858R-T790M, 1 mM ATP, 1 h, room temperature, read-out: IC50 (nM) @L858R-T790M
T5 construct: purchased Carna Bio
In short: as §2

[8] = target: T6, EGFR (d746-750 C797S) (Homo sapiens, UniProt P00533, C797S/DEL746-750); test: Inhibition of EGFR (d746-750 C797S) biochemical enzymatic activity (HTRF); details: EGFR Del19-C797S, 1 mM ATP, 1 h, room temperature, read-out: IC50 (nM) @Del19-C797S
T6 construct: purchased signalchem
In short: as §2

[9] = target: T7, EGFR[T790M/C797S/d746-750] (Homo sapiens, UniProt P00533, C797S/DEL746-750/T790M); test: Inhibition of EGFR[T790M/C797S/d746-750] biochemical enzymatic activity (HTRF); details: EGFR T790M-C797S-Del19, 1 mM ATP, 1 h, room temperature, read-out: IC50 (nM) @T790M - C797S - Del19
T7 construct: purchased Carna Bio
In short: as §2

[10] = target: T8, EGFR L858R (Homo sapiens, UniProt P00533, L858R); test: Inhibition of EGFR L858R biochemical enzymatic activity (HTRF); details: 1 mM ATP, 1 h, room temperature, read-out: IC50 (nM) @L858R
T8 construct: purchased Carna Bio
In short: as §2

[11] = target: T9, EGFR (C797S L858R) (Homo sapiens, UniProt P00533, C797S/L858R); test: Inhibition of EGFR (C797S L858R) biochemical enzymatic activity (HTRF); details: EGFR L858-C797S, 1 mM ATP, 1 h, room temperature, read-out: IC50 (nM) @L858-C797S
T9 construct: purchased signalchem
In short: as §2

[12] = system: A-431; test: Cell proliferation GI50, A-431 cells (Table 6); type: cell-based
Description: [Worded in the source for another cell line; this cell line is reported under the same test.] Ba/F3 cells expressing EGFR mutations were seeded in 384-well plates at 5000 cells/well in RPMI1640 medium containing […]. PC-9 at 500 cells/well was seeded into 384-well plates in RPMI1640 medium with 10% FBS. After overnight incubation, the assay plates were dosed with compounds at a series of concentrations. Alongside dosing the assay plates, the day 0 plate was processed using CellTiter-Glo® Luminescent Cell Viability Assay (Promega) to measure the number of viable cells (G0). The assay plates were further incubated for 72 hours and the number of viable cells (G3) was measured. The percentage of proliferation was calculated as: […]=100×(G3 value of sample well−G0 value)/(G3 value of DMSO control−G0 value). The concentration of compound producing 50% proliferation inhibition (GI50) was further calculated in best-fit curves using XLFit software. N/A=not available.

[13] = BaF3 cells, EGFR DEL19-C797S, read-out: DEL19-C797S/BaF3 GI50
[14] = BaF3 cells, EGFR DEL19-T790-C797S, read-out: DEL19-T790-C797S/BaF3 GI50
[15] = BaF3 cells, EGFR L858R, read-out: L858R/BaF3 GI50
[16] = BaF3 cells, EGFR L858R-C797S, read-out: L858R-C797S/BaF3 GI50
[17] = BaF3 cells, EGFR L858R-T790-C797S, read-out: L858R-T790-C797S/BaF3 GI50
[18] = BaF3 cells, EGFR L858R-T790M, read-out: L858R-T790M/BaF3 GI50
[19] = EGFR DEL19-T790M, read-out: DEL19-T790M GI50

T9 sequence (P00533 25-1210 C797S/L858R): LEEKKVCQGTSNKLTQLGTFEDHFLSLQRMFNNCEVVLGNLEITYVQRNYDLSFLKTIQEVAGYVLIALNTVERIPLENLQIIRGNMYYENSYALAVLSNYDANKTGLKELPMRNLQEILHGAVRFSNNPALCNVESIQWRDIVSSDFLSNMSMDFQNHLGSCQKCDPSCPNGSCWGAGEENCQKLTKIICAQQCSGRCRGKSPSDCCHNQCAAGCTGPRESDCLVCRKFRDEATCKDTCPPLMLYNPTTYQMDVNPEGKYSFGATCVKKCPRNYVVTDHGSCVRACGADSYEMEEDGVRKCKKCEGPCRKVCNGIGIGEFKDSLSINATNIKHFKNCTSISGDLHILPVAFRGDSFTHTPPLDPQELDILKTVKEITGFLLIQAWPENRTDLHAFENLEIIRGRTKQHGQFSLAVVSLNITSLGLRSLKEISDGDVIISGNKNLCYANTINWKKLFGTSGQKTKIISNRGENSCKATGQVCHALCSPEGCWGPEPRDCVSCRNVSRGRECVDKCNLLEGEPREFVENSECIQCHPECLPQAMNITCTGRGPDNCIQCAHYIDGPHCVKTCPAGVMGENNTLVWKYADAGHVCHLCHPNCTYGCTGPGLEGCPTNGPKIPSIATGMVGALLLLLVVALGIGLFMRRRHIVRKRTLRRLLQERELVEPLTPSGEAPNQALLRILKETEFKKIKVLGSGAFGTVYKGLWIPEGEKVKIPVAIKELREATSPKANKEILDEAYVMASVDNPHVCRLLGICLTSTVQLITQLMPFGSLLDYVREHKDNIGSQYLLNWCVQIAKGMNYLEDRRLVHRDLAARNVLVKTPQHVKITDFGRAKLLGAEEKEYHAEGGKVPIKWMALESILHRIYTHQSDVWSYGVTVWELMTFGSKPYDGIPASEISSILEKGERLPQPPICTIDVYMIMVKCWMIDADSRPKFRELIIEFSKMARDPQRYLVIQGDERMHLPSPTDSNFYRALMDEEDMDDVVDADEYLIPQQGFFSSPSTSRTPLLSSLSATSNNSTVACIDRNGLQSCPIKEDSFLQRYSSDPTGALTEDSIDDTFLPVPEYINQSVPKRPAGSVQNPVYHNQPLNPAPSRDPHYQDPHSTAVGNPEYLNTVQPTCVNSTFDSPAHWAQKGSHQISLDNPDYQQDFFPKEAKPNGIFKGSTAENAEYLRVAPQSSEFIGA
T6 sequence (P00533 with tags, fused parts or gaps DEL746-750/C797S limits assumed): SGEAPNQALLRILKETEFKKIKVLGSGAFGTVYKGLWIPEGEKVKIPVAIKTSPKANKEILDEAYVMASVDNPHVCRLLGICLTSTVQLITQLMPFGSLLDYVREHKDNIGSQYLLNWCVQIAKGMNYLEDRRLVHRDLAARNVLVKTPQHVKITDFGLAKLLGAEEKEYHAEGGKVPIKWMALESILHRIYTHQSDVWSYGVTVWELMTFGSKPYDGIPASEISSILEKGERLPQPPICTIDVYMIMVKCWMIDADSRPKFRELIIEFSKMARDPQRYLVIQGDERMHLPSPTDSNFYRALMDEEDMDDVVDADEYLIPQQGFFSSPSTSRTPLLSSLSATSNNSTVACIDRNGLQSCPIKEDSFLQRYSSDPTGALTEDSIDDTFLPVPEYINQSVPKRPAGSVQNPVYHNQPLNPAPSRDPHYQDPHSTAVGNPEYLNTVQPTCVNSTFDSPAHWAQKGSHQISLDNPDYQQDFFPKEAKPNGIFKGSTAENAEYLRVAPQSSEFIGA
T5 sequence (P00533 25-1210 T790M/L858R): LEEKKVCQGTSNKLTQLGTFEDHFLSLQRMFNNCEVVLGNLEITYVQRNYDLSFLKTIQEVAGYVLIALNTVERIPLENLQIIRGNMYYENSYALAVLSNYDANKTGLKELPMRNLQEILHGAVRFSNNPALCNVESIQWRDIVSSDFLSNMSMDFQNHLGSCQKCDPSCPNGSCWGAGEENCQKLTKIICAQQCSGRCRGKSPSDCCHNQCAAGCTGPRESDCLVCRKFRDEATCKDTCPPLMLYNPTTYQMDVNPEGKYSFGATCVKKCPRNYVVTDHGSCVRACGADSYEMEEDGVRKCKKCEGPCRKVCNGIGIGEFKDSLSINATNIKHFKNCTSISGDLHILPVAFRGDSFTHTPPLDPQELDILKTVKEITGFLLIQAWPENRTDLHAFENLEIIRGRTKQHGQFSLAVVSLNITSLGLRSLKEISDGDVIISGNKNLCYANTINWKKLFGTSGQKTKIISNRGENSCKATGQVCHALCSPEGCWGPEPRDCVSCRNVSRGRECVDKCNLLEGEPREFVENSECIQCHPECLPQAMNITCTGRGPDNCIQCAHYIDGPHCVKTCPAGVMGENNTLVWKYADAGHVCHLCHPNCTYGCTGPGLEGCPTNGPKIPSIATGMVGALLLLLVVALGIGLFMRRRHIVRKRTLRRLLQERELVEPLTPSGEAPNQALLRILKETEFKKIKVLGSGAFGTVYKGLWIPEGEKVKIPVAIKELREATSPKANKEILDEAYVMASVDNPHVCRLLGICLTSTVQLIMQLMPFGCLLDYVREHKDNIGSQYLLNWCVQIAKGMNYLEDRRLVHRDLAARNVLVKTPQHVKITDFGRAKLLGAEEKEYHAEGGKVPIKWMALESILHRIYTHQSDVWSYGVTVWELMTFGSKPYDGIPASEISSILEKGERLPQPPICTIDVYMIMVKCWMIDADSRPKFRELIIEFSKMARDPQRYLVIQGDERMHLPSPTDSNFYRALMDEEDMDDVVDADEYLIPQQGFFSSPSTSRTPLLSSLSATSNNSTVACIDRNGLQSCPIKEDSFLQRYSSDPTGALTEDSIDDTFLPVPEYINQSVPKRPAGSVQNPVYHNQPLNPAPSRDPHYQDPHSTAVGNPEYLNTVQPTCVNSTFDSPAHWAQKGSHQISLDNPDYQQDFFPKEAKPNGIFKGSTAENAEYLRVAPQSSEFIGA
T4 sequence (P00533 with tags, fused parts or gaps DEL746-750/T790M limits assumed): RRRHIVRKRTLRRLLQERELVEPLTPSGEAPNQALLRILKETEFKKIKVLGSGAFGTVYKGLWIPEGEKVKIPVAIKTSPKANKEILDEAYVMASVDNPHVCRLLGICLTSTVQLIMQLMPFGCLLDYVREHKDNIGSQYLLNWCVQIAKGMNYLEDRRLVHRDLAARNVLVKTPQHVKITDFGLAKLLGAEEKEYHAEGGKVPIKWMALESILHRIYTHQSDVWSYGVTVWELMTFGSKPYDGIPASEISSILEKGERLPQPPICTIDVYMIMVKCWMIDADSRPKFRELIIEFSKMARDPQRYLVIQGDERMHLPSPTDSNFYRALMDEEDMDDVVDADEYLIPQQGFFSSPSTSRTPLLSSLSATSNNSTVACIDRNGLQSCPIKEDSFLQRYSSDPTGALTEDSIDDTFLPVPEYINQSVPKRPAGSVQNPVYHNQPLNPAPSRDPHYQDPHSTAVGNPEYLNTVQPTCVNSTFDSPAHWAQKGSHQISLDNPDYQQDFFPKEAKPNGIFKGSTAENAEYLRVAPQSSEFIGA
T8 sequence (P00533 25-1210 L858R): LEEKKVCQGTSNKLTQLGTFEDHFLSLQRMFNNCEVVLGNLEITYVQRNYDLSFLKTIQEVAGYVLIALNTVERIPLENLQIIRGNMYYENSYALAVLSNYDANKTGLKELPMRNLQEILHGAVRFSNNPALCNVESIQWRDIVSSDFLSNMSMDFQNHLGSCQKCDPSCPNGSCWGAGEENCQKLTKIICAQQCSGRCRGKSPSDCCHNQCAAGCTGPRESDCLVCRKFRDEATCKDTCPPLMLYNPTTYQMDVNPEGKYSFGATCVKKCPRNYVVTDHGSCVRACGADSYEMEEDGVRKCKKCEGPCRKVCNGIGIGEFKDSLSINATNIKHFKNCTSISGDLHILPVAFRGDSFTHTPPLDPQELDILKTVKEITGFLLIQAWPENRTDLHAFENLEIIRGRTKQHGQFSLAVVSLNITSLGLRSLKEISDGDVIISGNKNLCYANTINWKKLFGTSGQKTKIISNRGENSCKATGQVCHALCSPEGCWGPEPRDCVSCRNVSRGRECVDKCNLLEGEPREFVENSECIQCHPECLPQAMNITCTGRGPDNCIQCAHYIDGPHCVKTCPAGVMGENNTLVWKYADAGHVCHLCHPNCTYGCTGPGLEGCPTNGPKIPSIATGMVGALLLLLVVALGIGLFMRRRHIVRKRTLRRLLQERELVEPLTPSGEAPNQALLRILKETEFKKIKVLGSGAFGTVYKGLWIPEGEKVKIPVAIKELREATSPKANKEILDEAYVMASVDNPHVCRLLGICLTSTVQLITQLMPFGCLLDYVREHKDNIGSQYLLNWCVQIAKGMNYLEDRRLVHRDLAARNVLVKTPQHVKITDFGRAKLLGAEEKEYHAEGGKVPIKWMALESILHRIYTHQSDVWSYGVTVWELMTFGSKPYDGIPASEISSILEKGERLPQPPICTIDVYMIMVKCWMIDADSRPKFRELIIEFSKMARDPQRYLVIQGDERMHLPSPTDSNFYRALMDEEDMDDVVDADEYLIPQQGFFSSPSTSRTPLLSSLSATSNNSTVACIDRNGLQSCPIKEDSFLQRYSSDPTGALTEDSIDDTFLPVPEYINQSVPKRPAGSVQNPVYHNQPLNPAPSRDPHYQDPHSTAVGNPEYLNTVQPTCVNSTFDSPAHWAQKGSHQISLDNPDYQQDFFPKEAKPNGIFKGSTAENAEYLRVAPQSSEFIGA

Row | GI50 [1, 13] | GI50 [1, 14] | GI50 [1, 15] | GI50 [1, 16] | GI50 [1, 17] | GI50 [1, 18] | GI50 [1, 19] | GI50 [5] | GI50 ([12]; A-431 cells) | other results | SMILES
1 | 0.0052 µM | 0.024 µM | 0.021 µM | 0.019 µM | 0.017 µM | 0.053 µM | 0.029 µM | 0.073 µM | 0.664 µM | IC50 [2]: 14 nM; IC50 [3]: 288 nM; pIC50 [4]: 8.26; IC50 [6]: 12 nM; IC50 [7]: 22 nM; IC50 [8]: 3.2 nM; IC50 [9]: 10 nM; IC50 [10]: 28 nM; IC50 [11]: 16 nM | CCC1CCCOc2c(cnn2C)-c2cc(cn(C)c2=O)C(=O)Nc2nc3ccc(N4CCN(C)CC4)cc3n2C1 (single isomer, unassigned) [Example A16B, 11-Ethyl-5,26-dimethyl-16-(4-methylpiperazin-1-yl)-7-oxa-4,5,13,20,22,26-hexaazapentacyclo[22.3.1.0^{2,6}.0^{13,21}.0^{14,19}]octacosa-1(28),2(6),3,14,16,18,20,24-octaene-23,27-dione]
2 | 0.019 µM | 0.04 µM | 0.087 µM | 0.12 µM | 0.086 µM | 0.457 µM | 0.063 µM | 0.146 µM | 4.11 µM | IC50 [2]: 157 nM; pIC50 [4]: 7.64; IC50 [6]: 8.6 nM; IC50 [7]: 240 nM; IC50 [8]: 18 nM; IC50 [9]: 9.4 nM; IC50 [10]: 917 nM; IC50 [11]: 619 nM | CN1CCN(c2ccc3c(c2)nc2n3C34CCC(CN(CCOc5c(cnn5C)-c5cc(cn(C)c5=O)C(=O)N2)C3)C4)CC1 (centres unmarked) [Example A60, 15,21-dimethyl-6-(4-methylpiperazin-1-yl)-23-oxa-2,9,11,15,20,21,26-heptaazaheptacyclo[24.4.1.1^{1,28}.1^{13,17}.0^{2,10}.0^{3,8}.0^{18,22}]tritriaconta-3,5,7,9,13,17(33),18(22),19-octaene-12,16-dione]
3 | 0.393 µM | 1.35 µM | 2.15 µM | 1.2 µM | 2.38 µM | 1.05 µM | 1.4 µM | 1.32 µM | 7.12 µM | – | Cn1ncc2c1OCCN1CC3CCC(C3)(C1)n1c(nc3ccc(N4CCOCC4)cc31)NC(=O)c1cc-2c(=O)n(C)c1 (single isomer, unassigned) [Example A62A, 15,21-Dimethyl-5-(morpholin-4-yl)-23-oxa-2,9,11,15,20,21,26-heptaazaheptacyclo[24.4.1.1^{1,28}.1^{13,17}.0^{2,10}.0^{3,8}.0^{18,22}]tritriaconta-3,5,7,9,13,17(33),18(22),19-octaene-12,16-dione]
4 | – | – | – | – | – | – | – | – | – | GI50 ([1]; Mus musculus, BaF3, 72 h, BaF3 cells, EGFR DEL19-C797S, read-out: DEL19-C797S/BaF3 GI50): 0.00043 µM; GI50 ([1]; Mus musculus, BaF3, 72 h, BaF3 cells, EGFR DEL19-T790-C797S, read-out: DEL19-T790-C797S/BaF3 GI50): 0.0015 µM; GI50 ([1]; Mus musculus, BaF3, 72 h, BaF3 cells, EGFR L858R, read-out: L858R/BaF3 GI50): 0.003 µM; GI50 ([1]; Mus musculus, BaF3, 72 h, BaF3 cells, EGFR L858R-C797S, read-out: L858R-C797S/BaF3 GI50): 0.0028 µM; GI50 ([1]; Mus musculus, BaF3, 72 h, BaF3 cells, EGFR L858R-T790-C797S, read-out: L858R-T790-C797S/BaF3 GI50): 0.0029 µM; GI50 ([1]; Mus musculus, BaF3, 72 h, BaF3 cells, EGFR L858R-T790M, read-out: L858R-T790M/BaF3 GI50): 0.0091 µM; GI50 ([1]; Mus musculus, BaF3, 72 h, EGFR DEL19-T790M, read-out: DEL19-T790M GI50): 0.0038 µM; GI50 ([5]; Homo sapiens, PC-9, 72 h): 0.0073 µM; GI50 ([12]; Homo sapiens, A-431, A-431 cells): 0.248 µM | C[C@@H]1CCCOc2c(cnn2C)-c2cc(cn(C)c2=O)C(=O)Nc2nc3ccc(N4CC5CCN(C)C5C4)cc3n2C1 (some centres unmarked) [Example A32]
5 | 1.09 µM | 3.94 µM | 0.715 µM | 1.49 µM | 0.634 µM | 2.71 µM | 2.1 µM | 1.94 µM | 1.8 µM | – | Cn1ncc2c1OCCN1CC3CCC(C3)(C1)n1c(nc3ccc(N4CCC(N5CC(F)C5)C4)cc31)NC(=O)c1cc-2c(=O)n(C)c1 (single isomer, unassigned) [Example A94A2, 5-[3-(3-Fluoroazetidin-1-yl)pyrrolidin-1-yl]-15,21-dimethyl-23-oxa-2,9,11,15,20,21,26-heptaazaheptacyclo[24.4.1.1^{1,28}.1^{13,17}.0^{2,10}.0^{3,8}.0^{18,22}]tritriaconta-3,5,7,9,13,17(33),18(22),19-octaene-12,16-dione]
6 | 0.188 µM | 0.411 µM | 0.603 µM | 0.452 µM | 0.463 µM | 1.87 µM | 0.517 µM | 0.554 µM | 3.1 µM | – | CN1CCN(C2CN(c3ccc4nc5n(c4c3)C34CCC(CN(CCOc6c(cnn6C)-c6cc(cn(C)c6=O)C(=O)N5)C3)C4)C2)CC1 (single isomer, unassigned) [Example A70A]
7 | 0.286 µM | 0.579 µM | 1.76 µM | 0.954 µM | 0.762 µM | 2.41 µM | 0.735 µM | 0.787 µM | 7.87 µM | – | Cn1ncc2c1OCCN1CC3CCC(C3)(C1)n1c(nc3ccc(N4CCN(C5COC5)CC4)cc31)NC(=O)c1cc-2c(=O)n(C)c1 (single isomer, unassigned) [Example A71A]

Reference: patent publication US20260365670A1, “EGFR INHIBITORS AND USES THEREOF” (DIZAL (JIANGSU) PHARMACEUTICAL CO., LTD., priority 2022, published 2026)
